Format in all cases: cell-based
Experiment [1] relates to strain B, fluoroquinolone-resistant clinical isolate of Streptococcus pneumoniae. Kind of experiment: In vitro antibacterial activity (MIC), microdilution broth method, strain B. To be noted: read-out: MIC (μg/mL) B. On the procedure: (§1) Minimal inhibitory concentration (MIC) is an indicator of in vitro antibacterial activity. […] The in vitro antimicrobial activity of representative compounds of the present invention was determined by the microdilution broth method following the test method from the National Committee for Clinical Laboratory Standards (NCCLS). This method is described in the NCCLS Document M7-A4, Vol. 17, No. 2, “Methods for Dilution Antimicrobial Susceptibility Test for Bacteria that Grow Aerobically—Fourth Edition”, which is incorporated herein by reference.
(§2) In this method two-fold serial dilutions of drug in cation adjusted Mueller-Hinton broth were added to wells in microdilution trays. The test organisms were prepared by adjusting the turbidity of actively growing broth cultures so that the final concentration of test organism after it is added to the wells was approximately 5×10^4 CFU/well. Following inoculation of the microdilution trays, the trays were incubated at 35° C. for 16-20 hours and then read. The amount of growth in the wells containing the test compound was compared with the amount of growth in the growth-control wells (no test compound) used in each tray.
(§3) Representative compounds of the present invention were tested against a variety of pathogenic bacteria with results as listed in Table 3, below.
(Dilution methods test growth across graded concentrations, often in twofold steps.)

The subject of experiment [2] is strain D, fluoroquinolone-resistant clinical isolate of Streptococcus pneumoniae. Kind of experiment: In vitro antibacterial activity (MIC), microdilution broth method, strain D. To be noted: read-out: MIC (μg/mL) D. Here is the method:
as §1, §2, §3

The subject of experiment [3] is strain C, fluoroquinolone-resistant clinical isolate of Streptococcus pneumoniae. Kind of experiment: In vitro antibacterial activity (MIC), microdilution broth method, strain C. To be noted: read-out: MIC (μg/mL) C. On the procedure: as §1, §2, §3
In experiment [4] the test system is Streptococcus pneumoniae ATCC 49619. Kind of experiment: In vitro antibacterial activity (MIC), microdilution broth method, strain E. The following applies: ATCC49619, 35° C., 16-20 hours. On the procedure:
as §1, §2, §3

The subject of experiment [5] is Staphylococcus aureus OC4172. In words: In vitro antibacterial activity (MIC), microdilution broth method, strain A. To be noted: cation adjusted Mueller-Hinton broth, 35° C., 16-20 hours. On the procedure:
as §1, §2, §3

In brackets after ≈: the same amount, converted by molar mass.

For the compound `O=C(O)c1cn(C2CC2)c2c(OC(F)F)c(-c3cc4n(c3)CCNC4)ccc2c1=O` [Compound 1, 1-Cyclopropyl-8-difluoromethoxy-4-oxo-7-(1,2,3,4-tetrahydro-pyrrolo[1,2-a]pyrazin-7-yl)-1,4-dihydro-quinoline-3-carboxylic acid], the MIC in experiment [1] stood at 1 µg/mL (≈ 2.41 µM); in experiment [2] it was 8 µg/mL (≈ 19.3 µM); in experiment [3], 8 µg/mL (≈ 19.3 µM); in experiment [4], 0.5 µg/mL (≈ 1.2 µM); in experiment [5], 0.06 µg/mL (≈ 0.144 µM).

In the case of `O=C(O)c1cn(C2CC2)c2c(OC(F)F)c(C3=C[C@H]4CN(Cc5ccccc5)CCN4C3)ccc2c1=O` [Compound 2, 7-(2-Benzyl-1,2,3,4,6,8a-hexahydro-pyrrolo[1,2S-a]pyrazin-7-yl)-1-cyclopropyl-8-difluoromethoxy-4-oxo-1,4-dihydro-quinoline-3-carboxylic acid], the MIC in experiment [1] is above 16 µg/mL; in experiment [2], above 16 µg/mL; in experiment [3], above 16 µg/mL; in experiment [4] it was 8 µg/mL (≈ 15.8 µM); in experiment [5] it was 0.5 µg/mL (≈ 0.985 µM).

With `O=C(O)c1cn(C2CC2)c2c(OC(F)F)c(C3C[C@H]4CNCCN4C3)ccc2c1=O` (stereo partly drawn) [Compound 3, 1-Cyclopropyl-8-difluoromethoxy-7-(octahydro-pyrrolo[1,2S-a]pyrazin-7-yl)-4-oxo-1,4-dihydro-quinoline-3-carboxylic acid], the MIC was above 16 µg/mL in experiment [1]; above 16 µg/mL in experiment [2]; above 16 µg/mL in experiment [3]; above 16 µg/mL in experiment [4]; 8 µg/mL (≈ 19.1 µM) in experiment [5].

`CN1CCn2cc(-c3ccc4c(=O)c(C(=O)O)cn(C5CC5)c4c3OC(F)F)cc2C1` [Compound 4, 1-Cyclopropyl-8-difluoromethoxy-7-(2-methyl-1,2,3,4-tetrahydro-pyrrolo[1,2-a]pyrazin-7-yl)-4-oxo-1,4-dihydro-quinoline-3-carboxylic acid]: the MIC in experiment [1] is 2 µg/mL (≈ 4.66 µM); in experiment [2], above 16 µg/mL; in experiment [3] it was above 16 µg/mL; in experiment [4], 2 µg/mL (≈ 4.66 µM); in experiment [5], 0.25 µg/mL (≈ 0.582 µM).

For the compound `CN1CCN2CC(c3ccc4c(=O)c(C(=O)O)cn(C5CC5)c4c3OC(F)F)C[C@H]2C1` (stereo partly shown) [Compound 5, 1-Cyclopropyl-8-difluoromethoxy-7-(2-methyl-octahydro-pyrrolo[1,2s-a]pyrazin-7-yl)-4-oxo-1,4-dihydro-quinoline-3-carboxylic acid], the MIC is above 16 µg/mL in experiment [1]; above 16 µg/mL in experiment [2]; above 16 µg/mL in experiment [3]; above 16 µg/mL in experiment [4]; 8 µg/mL (≈ 18.5 µM) in experiment [5].

Turning to `C[C@H]1CN2CC(c3ccc4c(=O)c(C(=O)O)cn(C5CC5)c4c3OC(F)F)C[C@H]2CN1` (stereo partly drawn) [Compound 6, 1-Cyclopropyl-8-difluoromethoxy-7-(3S-methyl-octahydro-pyrrolo[1,2S-a]pyrazin-7-yl)-4-oxo-1,4-dihydro-quinoline-3-carboxylic acid], the MIC in experiment [1] is above 16 µg/mL; in experiment [2], above 16 µg/mL; in experiment [3], above 16 µg/mL; in experiment [4], above 16 µg/mL; in experiment [5] it was 4 µg/mL (≈ 9.23 µM).

On to `C[C@H]1Cn2cc(-c3ccc4c(=O)c(C(=O)O)cn(C5CC5)c4c3OC(F)F)cc2CN1` [Compound 7, 1-Cyclopropyl-8-difluoromethoxy-7-(3S-methyl-1,2,3,4-tetrahydro-pyrrolo[1,2-a]pyrazin-7-yl)-4-oxo-1,4-dihydro-quinoline-3-carboxylic acid], for which the MIC was 1 µg/mL (≈ 2.33 µM) in experiment [1]; 16 µg/mL (≈ 37.3 µM) in experiment [2]; 8 µg/mL (≈ 18.6 µM) in experiment [3]; 1 µg/mL (≈ 2.33 µM) in experiment [4]; 0.12 µg/mL (≈ 0.279 µM) in experiment [5].

For the compound `C[C@@H]1NCCn2cc(-c3ccc4c(=O)c(C(=O)O)cn(C5CC5)c4c3OC(F)F)cc21` [Compound 8, 1-Cyclopropyl-8-difluoromethoxy-7-(1S-methyl-1,2,3,4-tetrahydro-pyrrolo[1,2-a]pyrazin-7-yl)-4-oxo-1,4-dihydro-quinoline-3-carboxylic acid], the MIC in experiment [1] was 4 µg/mL (≈ 9.31 µM); in experiment [2], above 16 µg/mL; in experiment [3] it was 16 µg/mL (≈ 37.3 µM); in experiment [4] it was 1 µg/mL (≈ 2.33 µM); in experiment [5], 0.5 µg/mL (≈ 1.16 µM).

Take `C[C@H]1NCCn2cc(-c3ccc4c(=O)c(C(=O)O)cn(C5CC5)c4c3OC(F)F)cc21` [Compound 9, 1-Cyclopropyl-8-difluoromethoxy-7-(1R-methyl-1,2,3,4-tetrahydro-pyrrolo[1,2-a]pyrazin-7-yl)-4-oxo-1,4-dihydro-quinoline-3-carboxylic acid]: the MIC was 4 µg/mL (≈ 9.31 µM) in experiment [1]; above 16 µg/mL in experiment [2]; 16 µg/mL (≈ 37.3 µM) in experiment [3]; 1 µg/mL (≈ 2.33 µM) in experiment [4]; 0.5 µg/mL (≈ 1.16 µM) in experiment [5].

In the case of `CN[C@@H](C)C(=O)N1CCn2cc(-c3ccc4c(=O)c(C(=O)O)cn(C5CC5)c4c3OC(F)F)cc2C1` [Compound 10, 1-Cyclopropyl-8-difluoromethoxy-7-[2S-(2-methylamino-propionyl)-1,2,3,4-tetrahydro-pyrrolo[1,2-a]pyrazin-7-yl]-4-oxo-1,4-dihydro-quinoline-3-carboxylic acid], the MIC is 4 µg/mL (≈ 7.99 µM) in experiment [1]; above 16 µg/mL in experiment [2]; 16 µg/mL (≈ 32 µM) in experiment [3]; 2 µg/mL (≈ 4 µM) in experiment [4]; 0.25 µg/mL (≈ 0.499 µM) in experiment [5].

As to `COc1c(-c2cc3n(c2)C[C@H](C)NC3)c(F)cc2c(=O)c(C(=O)O)cn(C3CC3)c12` [Compound 11, 1-Cyclopropyl-6-fluoro-8-methoxy-7-(3S-methyl-1,2,3,4-tetrahydro-pyrrolo[1,2-a]pyrazin-7-yl)-4-oxo-1,4-dihydro-quinoline-3-carboxylic acid], the MIC was 0.5 µg/mL (≈ 1.22 µM) in experiment [1]; 4 µg/mL (≈ 9.72 µM) in experiment [2]; 1 µg/mL (≈ 2.43 µM) in experiment [3]; 0.12 µg/mL (≈ 0.292 µM) in experiment [4]; 0.03 µg/mL (≈ 0.0729 µM) in experiment [5].

Consider `COc1c(-c2cc3n(c2)C[C@@H](C)NC3)c(F)cc2c(=O)c(C(=O)O)cn(C3CC3)c12` [Compound 12, 1-Cyclopropyl-6-fluoro-8-methoxy-7-(3R-methyl-1,2,3,4-tetrahydro-pyrrolo[1,2-a]pyrazin-7-yl)-4-oxo-1,4-dihydro-quinoline-3-carboxylic acid], for which the MIC in experiment [1] was 1 µg/mL (≈ 2.43 µM); in experiment [2] it was 8 µg/mL (≈ 19.4 µM); in experiment [3], 2 µg/mL (≈ 4.86 µM); in experiment [4], 0.25 µg/mL (≈ 0.608 µM); in experiment [5] it was 0.03 µg/mL (≈ 0.0729 µM).

With `COc1c(-c2cc3n(c2)C[C@H](C)N(C)C3)c(F)cc2c(=O)c(C(=O)O)cn(C3CC3)c12` [Compound 13, 1-Cyclopropyl-7-(2,3S-dimethyl-1,2,3,4-tetrahydro-pyrrolo[1,2-a]pyrazin-7-yl)-6-fluoro-8-methoxy-4-oxo-1,4-dihydro-quinoline-3-carboxylic acid], the MIC in experiment [1] was 0.5 µg/mL (≈ 1.18 µM); in experiment [2], 8 µg/mL (≈ 18.8 µM); in experiment [3], 4 µg/mL (≈ 9.4 µM); in experiment [4], 0.5 µg/mL (≈ 1.18 µM); in experiment [5] it was 0.12 µg/mL (≈ 0.282 µM).

As for `COc1c(-c2cc3n(c2)C[C@@H](C)N(C)C3)c(F)cc2c(=O)c(C(=O)O)cn(C3CC3)c12` [Compound 14, 1-Cyclopropyl-7-(2,3R-dimethyl-1,2,3,4-tetrahydro-pyrrolo[1,2-a]pyrazin-7-yl)-6-fluoro-8-methoxy-4-oxo-1,4-dihydro-quinoline-3-carboxylic acid], the MIC is 2 µg/mL (≈ 4.7 µM) in experiment [1]; above 16 µg/mL in experiment [2]; 8 µg/mL (≈ 18.8 µM) in experiment [3]; 1 µg/mL (≈ 2.35 µM) in experiment [4]; 0.25 µg/mL (≈ 0.588 µM) in experiment [5].

Consider `COc1c(-c2cc3n(c2)C[C@H](CO)N(C)C3)c(F)cc2c(=O)c(C(=O)O)cn(C3CC3)c12` [Compound 15, 1-Cyclopropyl-6-fluoro-7-(3R-hydroxymethyl-2-methyl-1,2,3,4-tetrahydro-pyrrolo[1,2-a]pyrazin-7-yl)-8-methoxy-4-oxo-1,4-dihydro-quinoline-3-carboxylic acid], for which the MIC in experiment [1] was determined as 4 µg/mL (≈ 9.06 µM); in experiment [2], 16 µg/mL (≈ 36.2 µM); in experiment [3] it was 8 µg/mL (≈ 18.1 µM); in experiment [4] it was 1 µg/mL (≈ 2.27 µM); in experiment [5], 0.12 µg/mL (≈ 0.272 µM).

Regarding `COc1c(-c2cc3n(c2)CCN[C@H]3C)c(F)cc2c(=O)c(C(=O)O)cn(C3CC3)c12` [Compound 16, 1-Cyclopropyl-6-fluoro-8-methoxy-7-(1S-methyl-1,2,3,4-tetrahydro-pyrrolo[1,2-a]pyrazin-7-yl)-4-oxo-1,4-dihydro-quinoline-3-carboxylic acid], the MIC in experiment [1] is 2 µg/mL (≈ 4.86 µM); in experiment [2], 8 µg/mL (≈ 19.4 µM); in experiment [3], 4 µg/mL (≈ 9.72 µM); in experiment [4], 0.5 µg/mL (≈ 1.22 µM); in experiment [5] it was 0.12 µg/mL (≈ 0.292 µM).

`COc1c(-c2cc3n(c2)CCN[C@@H]3C)c(F)cc2c(=O)c(C(=O)O)cn(C3CC3)c12` [Compound 17, 1-Cyclopropyl-6-fluoro-8-methoxy-7-(1R-methyl-1,2,3,4-tetrahydro-pyrrolo[1,2-a]pyrazin-7-yl)-4-oxo-1,4-dihydro-quinoline-3-carboxylic acid]: the MIC in experiment [1] was 8 µg/mL (≈ 19.4 µM); in experiment [2] it was above 16 µg/mL; in experiment [3] it was 16 µg/mL (≈ 38.9 µM); in experiment [4], 2 µg/mL (≈ 4.86 µM); in experiment [5], 0.25 µg/mL (≈ 0.608 µM).

The values above are taken from patent publication US20090270379A1, “QUINOLONE DERIVATIVES USEFUL AS ANTIBACTERIAL AGENTS” (priority 2008, published 2009).
